US20250282827A1, “LIPIDATED POLYMYXIN ANALOGUES” (priority 2021, published 2025)
Converted amounts (≈) assume the structure as drawn. Positions of bridges follow the written chain, without caps; N, C: chain ends. Non-standard residues stand in square brackets, D forms with d. Residues, ends and D or L forms follow the SMILES beside them. *: point of attachment. Ethyl(2-OPiv) = CC(C)(C)C(=O)OCC*; Dab = NCC[C@H](N)C(=O)O; X6 = CCC(C)(C)C(=O)OCC*; X10 = CCC(C)CC(=O)OCC*; X7 = CC(C)CCC(=O)OCC*; X11 = O=C(OCC*)C1CC1; X5 = CCC(C)C(=O)OCC*; X9 = CC(C)CC(=O)OCC*

Key:
[1] = test system: E. coli ATCC 25922; assay type: cell-based, Escherichia coli; details: ATCC 25922
From the text: (§1) All 81 compounds prepared in Examples 2 and 3 underwent screening against a panel of Gram-negative bacterium to assess their ability to inhibit bacterial growth. […] The median value is presented.

[2] = test system: A. baumannii ATCC 19606; assay type: cell-based, Acinetobacter baumannii; details: ATCC 19606
From the text: as §1

[3] = test system: P. aeruginosa ATCC 27853; assay type: cell-based, Pseudomonas aeruginosa; details: ATCC 27853
From the text: as §1

[4] = test system: K. pneumoniae ATCC 33495; assay type: cell-based, Klebsiella pneumoniae; details: ATCC 33495
From the text: as §1

[5] = test system: K. pneumoniae ATCC 700603; assay type: cell-based, Klebsiella pneumoniae; details: ATCC 700603
From the text: as §1

[6] = test system: K. pneumoniae ATCC MS6671; assay type: cell-based, Klebsiella pneumoniae; details: ATCC MS6671
From the text: as §1

[7] = test system: E. coli ATCC MS8345; assay type: cell-based, Escherichia coli; details: ATCC MS8345
From the text: as §1
Expansion of the polymyxin macrocycle by substituting […]) offered little advantage in antimicrobial activity but was generally well tolerated although for A. baumanni and P. aeruginosa this was detrimental.

| MIC E. coli ATCC 25922 [1] | MIC A. baumannii ATCC 19606 [2] | MIC P. aeruginosa ATCC 27853 [3] | MIC K. pneumoniae ATCC 33495 [4] | MIC K. pneumoniae ATCC 700603 [5] | MIC K. pneumoniae ATCC MS6671 [6] | MIC E. coli ATCC MS8345 [7] | Compound |
| --- | --- | --- | --- | --- | --- | --- | --- |
| 1 µg/mL (≈ 0.837 µM) | 4 µg/mL (≈ 3.35 µM) | 2 µg/mL (≈ 1.67 µM) | 1 µg/mL (≈ 0.837 µM) | 2 µg/mL (≈ 1.67 µM) | >32 µg/mL | 32 µg/mL (≈ 26.8 µM) | CC(C)C[C@@H]1NC(=O)[C@@H](Cc2ccccc2)NC(=O)[C@H](CCN)NC(=O)[C@@H](NC(=O)[C@H](CCN)NC(=O)[C@@H](NC(=O)[C@H](N)CSCCOC(=O)C(C)(C)C)[C@@H](C)O)CCNC(=O)[C@H]([C@@H](C)O)NC(=O)[C@H](CCN)NC(=O)[C@H](CCN)NC1=O [Compound 93] (H-[dC](Ethyl(2-OPiv))T[Dab][Dab][Dab][dF]L[Dab][Dab]T; lactam 4-C) |
| 1 µg/mL (≈ 0.837 µM) | 4 µg/mL (≈ 3.35 µM) | 1 µg/mL (≈ 0.837 µM) | 1 µg/mL (≈ 0.837 µM) | 2 µg/mL (≈ 1.67 µM) | >32 µg/mL | 16 µg/mL (≈ 13.4 µM) | CCC(C)C(=O)OCCSC[C@@H](N)C(=O)N[C@H](C(=O)N[C@@H](CCN)C(=O)N[C@H]1CCNC(=O)[C@H]([C@@H](C)O)NC(=O)[C@H](CCN)NC(=O)[C@H](CCN)NC(=O)[C@H](CC(C)C)NC(=O)[C@@H](Cc2ccccc2)NC(=O)[C@H](CCN)NC1=O)[C@@H](C)O (stereo partly shown) [Compound 95] (H-[dC](X5)T[Dab][Dab][Dab][dF]L[Dab][Dab]T; lactam 4-C) |
| 0.25 µg/mL (≈ 0.209 µM) | 4 µg/mL (≈ 3.35 µM) | 1 µg/mL (≈ 0.837 µM) | 1 µg/mL (≈ 0.837 µM) | 1 µg/mL (≈ 0.837 µM) | >32 µg/mL | 16 µg/mL (≈ 13.4 µM) | CC(C)CC(=O)OCCSC[C@@H](N)C(=O)N[C@H](C(=O)N[C@@H](CCN)C(=O)N[C@H]1CCNC(=O)[C@H]([C@@H](C)O)NC(=O)[C@H](CCN)NC(=O)[C@H](CCN)NC(=O)[C@H](CC(C)C)NC(=O)[C@@H](Cc2ccccc2)NC(=O)[C@H](CCN)NC1=O)[C@@H](C)O [Compound 96] (H-[dC](X9)T[Dab][Dab][Dab][dF]L[Dab][Dab]T; lactam 4-C) |
| 1 µg/mL (≈ 0.827 µM) | 4 µg/mL (≈ 3.31 µM) | 2 µg/mL (≈ 1.65 µM) | 1 µg/mL (≈ 0.827 µM) | 2 µg/mL (≈ 1.65 µM) | >32 µg/mL | 16 µg/mL (≈ 13.2 µM) | CCC(C)CC(=O)OCCSC[C@@H](N)C(=O)N[C@H](C(=O)N[C@@H](CCN)C(=O)N[C@H]1CCNC(=O)[C@H]([C@@H](C)O)NC(=O)[C@H](CCN)NC(=O)[C@H](CCN)NC(=O)[C@H](CC(C)C)NC(=O)[C@@H](Cc2ccccc2)NC(=O)[C@H](CCN)NC1=O)[C@@H](C)O (stereo partly shown) [Compound 97] (H-[dC](X10)T[Dab][Dab][Dab][dF]L[Dab][Dab]T; lactam 4-C) |
| 0.5 µg/mL (≈ 0.414 µM) | 2 µg/mL (≈ 1.65 µM) | 1 µg/mL (≈ 0.827 µM) | 1 µg/mL (≈ 0.827 µM) | 1 µg/mL (≈ 0.827 µM) | >32 µg/mL | 4 µg/mL (≈ 3.31 µM) | CC(C)CCC(=O)OCCSC[C@@H](N)C(=O)N[C@H](C(=O)N[C@@H](CCN)C(=O)N[C@H]1CCNC(=O)[C@H]([C@@H](C)O)NC(=O)[C@H](CCN)NC(=O)[C@H](CCN)NC(=O)[C@H](CC(C)C)NC(=O)[C@@H](Cc2ccccc2)NC(=O)[C@H](CCN)NC1=O)[C@@H](C)O [Compound 98] (H-[dC](X7)T[Dab][Dab][Dab][dF]L[Dab][Dab]T; lactam 4-C) |
| 2 µg/mL (≈ 1.65 µM) | 4 µg/mL (≈ 3.31 µM) | 4 µg/mL (≈ 3.31 µM) | 2 µg/mL (≈ 1.65 µM) | 2 µg/mL (≈ 1.65 µM) | >32 µg/mL | >32 µg/mL | CCC(C)(C)C(=O)OCCSC[C@@H](N)C(=O)N[C@H](C(=O)N[C@@H](CCN)C(=O)N[C@H]1CCNC(=O)[C@H]([C@@H](C)O)NC(=O)[C@H](CCN)NC(=O)[C@H](CCN)NC(=O)[C@H](CC(C)C)NC(=O)[C@@H](Cc2ccccc2)NC(=O)[C@H](CCN)NC1=O)[C@@H](C)O [Compound 99] (H-[dC](X6)T[Dab][Dab][Dab][dF]L[Dab][Dab]T; lactam 4-C) |
| 4 µg/mL (≈ 3.39 µM) | 16 µg/mL (≈ 13.6 µM) | 4 µg/mL (≈ 3.39 µM) | 2 µg/mL (≈ 1.7 µM) | 4 µg/mL (≈ 3.39 µM) | >32 µg/mL | >32 µg/mL | CC(C)C[C@@H]1NC(=O)[C@@H](Cc2ccccc2)NC(=O)[C@H](CCN)NC(=O)[C@@H](NC(=O)[C@H](CCN)NC(=O)[C@@H](NC(=O)[C@H](N)CSCCOC(=O)C2CC2)[C@@H](C)O)CCNC(=O)[C@H]([C@@H](C)O)NC(=O)[C@H](CCN)NC(=O)[C@H](CCN)NC1=O [Compound 100] (H-[dC](X11)T[Dab][Dab][Dab][dF]L[Dab][Dab]T; lactam 4-C) |
